Structures can show the parent of a compound that is named as a salt.
Assays:
[1] = tested on: Angiogenesis in CAM model; experiment: Neovascularization on the CAM (chick chorioallantoic membrane model of angiogenesis); format: in vivo, chicken; conditions: for Percent inhibition of angiogenesis in CAM model at 30 ug: unit assumed
Method: In vivo neovascularization was examined by the method previously described by Auerbach et al. (J. Dev. Biol. 41:391-394 (1974)). Ten-day old chicken embryos were purchased from Spafas, Inc. (Preston, Conn.) and were incubated at 37° C. with 55% relative humidity. In the dark, with the aid of a candling lamp, a small hole was punctured in the shell concealing the air sac with a hypodermic needle. A second hole was punctured in the shell on the broadside of the egg directly over an […] portion of the embryonic membrane, as observed during candling. An artificial air sac was created beneath the second hole by applying gentle vacuum to the first hole using a small rubber squeeze bulb. The vacuum caused the chorioallantoic membrane (CAM) to separate from the shell.
A window, approximately 1.0 cm^2, was cut in the shell over the dropped CAM with the use of a small crafts grinding wheel (Dremel, Division of Emerson Electric Company Racine, Wis.). The window allowed direct access to the underlying CAM.
A pro-angiogenic agent was added to induce new blood vessel branches on the CAM of 10-day old embryos. Filter disks of #1 filter paper (Whatman International, United Kingdom) were punched using a small puncher and were soaked in 3 mg/mL cortisone acetate (Sigma, St. Louis, Mo.) in a solution (95% ethanol and water). The disks were subsequently air dried under sterile conditions. The disks were then suspended in PBS (Phosphate Buffered Saline) and placed on growing CAMs. Filters treated with TP-H (TEMPOL-H) or TEMPOL and/or H2O2 or TP-H and/or bFGF or VEGF were placed on the first day of the 3-day incubation.
For inducing angiogenesis, sterile filter disks were saturated with bFGF (1 μg/ml) (Life Technologies, Gaithersburg, Md.) or other pro-angiogenesis factors and control disks were saturated with PBS without Calcium and Magnesium. […]
Using sterile forceps one filter/CAM was placed from the window. The window was sealed with Highland brand transparent tape.
After 24-48 hr, 10-25 ul of test agent was injected intravenously or added topically into the CAM membrane. Eight-Ten eggs/treatment group were used.
CAM tissue directly beneath filter disk was harvested from embryos treated 48 hours prior with compound or control. Tissues were washed three times with PBS. Sections were placed in a 35-mm petri dish (Nalge Nunc, Rochester, N.Y.) and examined under a SV6 stereomicroscope (Karl Zeiss, Thornwood, N.Y.) at 50× magnification.
CAM sections from Petri dish were examined using SV6 stereomicroscope (Karl Zeiss) at 50× magnification. Digital images of CAM sections from Petri dish were collected using a 3-CCD color video camera system (Toshiba America, New York, N.Y.). These images were analyzed using Image-Pro Plus software (Media Cybernetics, Silver Spring, Md.).
The number of branch points in blood vessels within the circular region superimposed to the area of a filter disk was counted for each section. After incubation at 37° C. with 55% relative humidity for 3 days, the CAM tissue directly beneath each filter disk was resected from control and treated CAM samples. Tissues were washed three times with PBS. Sections were placed in a 35-mm Petri dish (Nalge Nunc; Rochester, N.Y.) and were examined under a SV6 stereomicroscope (Karl Zeiss; Thornwood, N.Y.) at 50× magnification. Digital images of CAM sections adjacent to filters were collected using a 3-CCD color video camera system (Toshiba America; New York, N.Y.) and analyzed with the Image-Pro Plus software (Media Cybernetics; Silver Spring, Md.).
The number of vessel branch points contained in a circular region equal to the area of a filter disk was counted for each section. Percent inhibition data are expressed as the quotient of the experimental value minus the negative control value divided by the difference between the positive control value and the negative control value. […]

[2] = tested on: Human neuroblastoma SKN-SH cells, resistant to doxorubicin; experiment: Chemoresistance: cancer cell viability (MTT) in presence or absence of doxorubicin; format: cell-based; conditions: compound 50 ug/mL, MTT
From the text: A method for evaluating a compound's propensity to overcome cancer cell chemoresistance is described in “Caspase Inhibition Switches Doxorubicin-Induced Apoptosis To Senescence”, Abdelhadi Rebbaa, Xin Zheng, Pauline M Chou and Bernard L Mirkin, Oncogene (2003) 22, 2805-2811. Resistant human cancer cells to doxorubicin were selected by stepwise exposure to drug concentrations ranging from 10^−9 M-10^−6 M over 3 months. They were then subjected to treatment with the doxorubicin alone or in combination with hydroxylamine compounds 1-12, 16, 20, and 21 (Table 4). The cells were incubated with the drugs for 72 hours, and cell viability was measured by the MTT assay. Additionally, molecular pathways that might be associated with increased chemo-responsiveness with these compounds were investigated. p Cancer Cell Viability Data for certain hydroxylamines in the presence or absence of Doxorubicin is listed in Table 4.
A method for evaluating a compound's propensity to overcome cancer cell chemoresistance is described in “Caspase Inhibition Switches Doxorubicin-Induced Apoptosis To Senescence”, Abdelhadi Rebbaa, Xin Zheng, Pauline M Chou and Bernard L Mirkin, Oncogene (2003) 22, 2805-2811. Human neuroblastoma SKN-SH cells (ATCC Cat. No. HTB-11) were cultured in Dulbecco's Modified Eagles Medium (DMEM; Gibco, Grand Island, N.Y.) supplemented with 10% fetal bovine serum (FBS; Sigma-Aldrich, St. Louis, Mo.) at 37° C. in a 95% Air/5% CO2 atmosphere. Resistant human cancer cells to doxorubicin were selected by stepwise exposure to drug concentrations ranging from 10^−9M-10^−6M over 3 months. They were then subjected to treatment with the doxorubicin alone or in combination with hydroxylamine compounds. The cells were incubated with the drugs for 72 hours, and cell viability was measured by the MTT assay. This consists of adding 10 μl/well of MTT (5 mg/ml solution) and incubation for 4 h at 37° C. The precipitate formed is then solubilized by addition of 100 μl of HCL 0.5 N/Isopropanol and incubation for 15 hours at 37° C. The optical density is measured at 570 nm and cell survival is estimated by comparison to untreated cells. Each point represents 4 wells data represent average ± SE. Additionally, molecular pathways that might be associated with increased chemo-responsiveness with these compounds were investigated.
Cytotoxic activity of doxorubicin and hydroxylamine analogs were quantitatively determined by a colorimetric assay utilizing 3-(4,5-dimethyl-2-thiazolyl) 2,5-diphenyl tetrazolium bromide (MTT; Sigma-Aldrich, St. Louis, Mo.). Briefly, cells were seeded at 10^4 cells/well in 96-well plates and maintained in culture for 24 hours at 37° C. in DMEM supplemented with 10% FBS. Drugs were added to designated wells and cells were incubated for […], following which MTT (10 μL of 5 mg/ml solution) was added to each 100 μl well and incubated for 4 hours at 37° C. The cells were solubilized by incubation with 100 μl of HCl 0.5N in isopropanol for 15 hours at 37° C. The optical density of this solution was measured at 570 nm and the percentage of viable cells estimated by comparison with untreated control cells.

## 1-Hydroxy-4-(4-Flurophenyl)-2,2,6,6-tetramethylpiperidine [Compound 62]
[1]; 30 ug
  Percent inhibition of angiogenesis in CAM model at 30 ug: 43.8%
[2]; Dox. 10^−6 M present (+)
  Mean OD (×10^−3), cancer cell viability: 40.25 ×10^−3
[2]; Dox. absent (−)
  Mean OD (×10^−3), cancer cell viability: 184.75 ×10^−3

## CC1(C)C=C(CO)C(C)(C)N1O [Compound 8]
[1]; 30 ug
  Percent inhibition of angiogenesis in CAM model at 30 ug: 88%
[2]; Dox. 10^−6 M present (+)
  Mean OD (×10^−3), cancer cell viability: 197.25 ×10^−3
[2]; Dox. absent (−)
  Mean OD (×10^−3), cancer cell viability: 392.50 ×10^−3

## CC1(C)CC(Oc2nsnc2Cl)CC(C)(C)N1O.Cl [Compound 13, 4-(4-chloro-1,2,5-thiadiazol-3-yloxyl)-1-hydroxyl-2,2,6,6-tetramethylpiperidine]
[1]; 30 ug
  Percent inhibition of angiogenesis in CAM model at 30 ug: 51.2%

## CC1(C)CC(NC(=O)CCN2CCOCC2)CC(C)(C)N1O.Cl [Compound 26, N-(1-hydroxy-2,2,6,6-tetramethylpiperidin-4-yl)-3-morpholinopropanamide]
[1]; 30 ug
  Percent inhibition of angiogenesis in CAM model at 30 ug: 72%
[2]; Dox. 10^−6 M present (+)
  Mean OD (×10^−3), cancer cell viability: 261.50 ×10^−3
[2]; Dox. absent (−)
  Mean OD (×10^−3), cancer cell viability: 1056.33 ×10^−3

## CC1(C)CC(c2nn[nH]n2)CC(C)(C)N1O.Cl [Compound 30, 1-hydroxy-2,2,6,6-tetramethyl-4-(2H-tetrazol-5-yl)piperidine]
[1]; 30 ug
  Percent inhibition of angiogenesis in CAM model at 30 ug: 90.4%
[2]; Dox. 10^−6 M present (+)
  Mean OD (×10^−3), cancer cell viability: 310.00 ×10^−3
[2]; Dox. absent (−)
  Mean OD (×10^−3), cancer cell viability: 1301.25 ×10^−3

## CC1(C)CC(NC(=O)C2CC2)CC(C)(C)N1O.Cl [Compound 31, N-(1-hydroxy-2,2,6,6-tetramethylpiperidin-4-yl)cyclopropanecarboxamide]
[1]; 30 ug
  Percent inhibition of angiogenesis in CAM model at 30 ug: 38.8%
[2]; Dox. 10^−6 M present (+)
  Mean OD (×10^−3), cancer cell viability: 322.25 ×10^−3
[2]; Dox. absent (−)
  Mean OD (×10^−3), cancer cell viability: 1175.25 ×10^−3

## CC1(C)CC(Oc2nsnc2N2CCOCC2)C(C)(C)N1O.Cl (centres unmarked) [Compound 32, 4-(4-(1-hydroxy-2,2,5,5-tetramethylpyrrolidin-3-yloxy)-1,2,5-thiadiazol-3-yl)morpholine]
[2]; Dox. 10^−6 M present (+)
  Mean OD (×10^−3), cancer cell viability: 231.50 ×10^−3
[2]; Dox. absent (−)
  Mean OD (×10^−3), cancer cell viability: 985.67 ×10^−3

## CC1(C)CC(CO)CC(C)(C)N1O.Cl [Compound 34, (1-hydroxy-2,2,6,6-tetramethylpiperidin-4-yl)methanol]
[2]; Dox. 10^−6 M present (+)
  Mean OD (×10^−3), cancer cell viability: 302.75 ×10^−3
[2]; Dox. absent (−)
  Mean OD (×10^−3), cancer cell viability: 1168.25 ×10^−3

## CC1(C)C=C(CC2CNCCO2)C(C)(C)N1O.Cl.Cl (centres unmarked) [Compound 36]
[2]; Dox. 10^−6 M present (+)
  Mean OD (×10^−3), cancer cell viability: 297.00 ×10^−3
[2]; Dox. absent (−)
  Mean OD (×10^−3), cancer cell viability: 1110.75 ×10^−3

## CC1(C)CC(=O)C(C)(C)N1O.Cl [Compound 37, 1-hydroxy-2,2,5,5-tetramethylpyrrolidin-3-one]
[2]; Dox. 10^−6 M present (+)
  Mean OD (×10^−3), cancer cell viability: 366.25 ×10^−3
[2]; Dox. absent (−)
  Mean OD (×10^−3), cancer cell viability: 1329.75 ×10^−3

## CC1(C)CC(NC(=O)C2CC2)C(C)(C)N1O.Cl (centres unmarked) [Compound 38, N-(1-hydroxy-2,2,5,5-tetramethylpyrrolidin-3-yl)cyclopropanecarboxamide]
[2]; Dox. 10^−6 M present (+)
  Mean OD (×10^−3), cancer cell viability: 378.50 ×10^−3
[2]; Dox. absent (−)
  Mean OD (×10^−3), cancer cell viability: 1202.75 ×10^−3

## COc1ccc(C2=C(c3cc(OC)c(OC)c(OC)c3)C(C)(C)N(O)C2(C)C)cc1C=O [Compound 46, 5-(2,5,-dihydro-4-(3,4,5-trimethoxyphenyl)-1-hydroxy-2,2,5,5-tetramethyl-1H-pyrrol-3-yl)-2-methoxybenzaldehyde]
[1]; 30 ug
  Percent inhibition of angiogenesis in CAM model at 30 ug: 45.1%
[2]; Dox. 10^−6 M present (+)
  Mean OD (×10^−3), cancer cell viability: 32.75 ×10^−3
[2]; Dox. absent (−)
  Mean OD (×10^−3), cancer cell viability: 79.00 ×10^−3

## COc1cc(COC2CC(C)(C)N(O)C(C)(C)C2)cc(OC)c1OC.Cl [Compound 48, 1-Hydroxyl-4-(3,4,5-trimethoxybenzyloxy)-2,2,6,6-tetramethylpiperidine]
[2]; Dox. 10^−6 M present (+)
  Mean OD (×10^−3), cancer cell viability: 50.67 ×10^−3
[2]; Dox. absent (−)
  Mean OD (×10^−3), cancer cell viability: 1118.00 ×10^−3

## CC1(C)CC(NC(=O)CCCCC2CCSS2)CC(C)(C)N1O (centres unmarked) [Compound 49, 5-(1,2-dithialan-3-yl)-N-(1-hydroxy-2,2,6,6-tetramethylpiperidin-4-yl)pentanamide]
[2]; Dox. 10^−6 M present (+)
  Mean OD (×10^−3), cancer cell viability: 195.00 ×10^−3
[2]; Dox. absent (−)
  Mean OD (×10^−3), cancer cell viability: 1330.25 ×10^−3

## COc1cc(C2=CC(C)(C)N(O)C(C)(C)C2)cc(OC)c1OC.Cl [Compound 50, 1-Hydroxy-2,3,6-trihydro-4-(3,4,5-trimethoxyphenyl)-2,2,6,6-tetramethylpiperidine]
[1]; 30 ug
  Percent inhibition of angiogenesis in CAM model at 30 ug: 92.3%
[2]; Dox. 10^−6 M present (+)
  Mean OD (×10^−3), cancer cell viability: 54.50 ×10^−3
[2]; Dox. absent (−)
  Mean OD (×10^−3), cancer cell viability: 1226.33 ×10^−3

## CC1(C)CC(Oc2nsnc2N2CCN(c3ccccc3)CC2)CC(C)(C)N1O.Cl.Cl [Compound 53, 4-(4-phenylpiperazin-1-yl)-3-[(2,2,6,6-tetramethyl-1-hydroxypiperidinyl)-4-oxy]-1,2,5-thiadiazole]
[2]; Dox. 10^−6 M present (+)
  Mean OD (×10^−3), cancer cell viability: 170.00 ×10^−3
[2]; Dox. absent (−)
  Mean OD (×10^−3), cancer cell viability: 1333.75 ×10^−3

## CC1(C)CC(O)CC(C)(C)N1O [TEMPOL-H HCl, 2,2,6,6-tetramethylpiperidine-1,4-diol, reference compound]
[1]; Gallus gallus, 30 ug
  inhibition in vivo at 0.03 mg: 43 ± 10%

## O=C1O[C@H]([C@@H](O)CO)C(O)=C1O [Vitamin C, reference compound]
[1]; Gallus gallus, 300 ug
  inhibition in vivo at 0.3 mg: 15 ± 7%

## Vitamin E [reference compound]
[1]; 300 ug
  CAM data % Inhibition: 22 ± 6%

— patent US20080280890A1, “HYDROXYLAMINE COMPOUNDS AND METHODS OF THEIR USE” (priority 2007, published 2008)
